From patent US12371454B2, “Cyclic peptide compound having Kras inhibitory action” (priority 2019, dated 2025)
Starred links: 1 amine or outer side, 2 acyl side, 3 side chain; linkers in the order of their positions; H or OH if unused. Positions of bridges follow the written chain, without caps; N, C: chain ends. Non-standard residues stand in square brackets, D forms with d. Residues, ends and D or L forms follow the SMILES beside them. *: point of attachment. hPhe(3,5-F2-4-CF3) = N[C@@H](CCc1cc(F)c(C(F)(F)F)c(F)c1)C(=O)O; hPhe(3-Cl-4-CF3) = N[C@@H](CCc1ccc(C(F)(F)F)c(Cl)c1)C(=O)O; hPhe(3-F,4-CF3) = N[C@@H](CCc1ccc(C(F)(F)F)c(F)c1)C(=O)O; NMePhe(4-CF3) = CN[C@@H](Cc1ccc(C(F)(F)F)cc1)C(=O)O; hPhe(4-CF3) = N[C@@H](CCc1ccc(C(F)(F)F)cc1)C(=O)O; NMeAla(4-thiazolyl) = CN[C@@H](Cc1cscn1)C(=O)O; NMePhe(4-CN) = CN[C@@H](Cc1ccc(C#N)cc1)C(=O)O; NMePhe(4-Cl) = CN[C@@H](Cc1ccc(Cl)cc1)C(=O)O; NMePhe(4-Me) = CN[C@@H](Cc1ccc(C)cc1)C(=O)O; NMedβ3hAla = C[C@H](CC(=O)[*:2])N(C)[*:1]; NMeGly(cPent) = CN[C@H](C(=O)O)C1CCCC1; Pro(4,4-F2) = O=C(O)[C@@H]1CC(F)(F)CN1; NMeCha = CN[C@@H](CC1CCCCC1)C(=O)O; Gly(N-(CH2)2OEt) = CCOCCNCC(=O)O; NMeF = CN[C@@H](Cc1ccccc1)C(=O)O; NMeI = CC[C@H](C)[C@H](NC)C(=O)O; NMeD = CN[C@@H](CC(=O)O)C(=O)O; NMeL = CN[C@@H](CC(C)C)C(=O)O; NMeV = CN[C@H](C(=O)O)C(C)C; d(β3hA) = C[C@@H](N)CC(=O)O; NMeS = CN[C@@H](CO)C(=O)O; NMeA = CN[C@@H](C)C(=O)O; Piperidide = C1CCN(*)CC1; Ac5c = NC1(C(=O)O)CCCC1; Aze = O=C(O)[C@@H]1CCN1; Ac4c = NC1(C(=O)O)CCC1; Sar = CNCC(=O)O

molecular target: T1, Kras and SOS1 (biotin-tagged human Kras loaded with GDP, His-tagged human SOS1) (Homo sapiens, UniProt P01116, G12D); test: Protein-protein interaction inhibition between Kras and SOS1 (KrasGl2D-SOS PPI) using AlphaScreen; type: binding; conditions: AlphaScreen; biotin-tagged human Kras loaded with GDP, His-tagged human SOS1; read-out: KRAS G12D-SOS PPI IC50
T1 construct: made in house; host or cells: E. coli (stated for Kras only)
T1 sequence (P01116 1-188 isoform P01116-2 G12D): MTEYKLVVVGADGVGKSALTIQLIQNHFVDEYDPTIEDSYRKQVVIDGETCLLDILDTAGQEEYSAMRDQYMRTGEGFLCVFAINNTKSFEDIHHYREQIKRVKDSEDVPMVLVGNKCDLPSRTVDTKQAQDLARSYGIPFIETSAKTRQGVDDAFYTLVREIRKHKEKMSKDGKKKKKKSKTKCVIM
Method in brief: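 Kras was produced in E. coli, purified, then loaded with GDP. It was paired via streptavidin acceptor beads with His-SOS1 held on nickel donor beads, and proximity signal at 520-620 nm was read after 680 nm illumination.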

Point of comparison: `CC[C@H](C)[C@@H]1NC(=O)[C@H](C(C)C)N(C)C(=O)C[C@@H](C)NC(=O)[C@H](CC(C)C)N(C)C(=O)C2(CCCC2)NC(=O)[C@H](CC(C)C)N(C)C(=O)[C@H](CCc2ccc(C(F)(F)F)c(F)c2)NC(=O)CN(C)C(=O)[C@H](Cc2ccc(Cl)cc2)N(C)C(=O)CN(C)C(=O)CN(C)C1=O` [Compound 851] (cyclo([Ac5c][NMeL][d(β3hA)][NMeV]I[Sar][Sar][NMePhe(4-Cl)][Sar][hPhe(3-F,4-CF3)][NMeL])), IC50 27 nM. Against it:
- CC[C@H](C)[C@@H]1NC(=O)[C@H](CC(C)C)N(C)C(=O)C[C@@H](C(=O)N2CCCCC2)N(C)C(=O)[C@H](COC)N(C)C(=O)C2(CCCC2)NC(=O)[C@@H]2CCCN2C(=O)[C@H](CCc2ccc(C(F)(F)F)c(Cl)c2)NC(=O)CN(C)C(=O)[C@H](CC2CCCCC2)N(C)C(=O)CN(C)C(=O)CN(C)C1=O [Compound 850] ([NMeL]I[Sar][Sar][NMeCha][Sar][hPhe(3-Cl-4-CF3)]P[Ac5c][NMeS](Me)[NMeD]-Piperidide; lactam N-11) — within 1.5-fold, 24 nM
- CC[C@H](C)[C@@H]1NC(=O)[C@H](CC(C)C)N(C)C(=O)C[C@@H](C(=O)N(C)C)N(C)C(=O)[C@H]([C@@H](C)CC)N(C)C(=O)[C@H](C)NC(=O)[C@H](Cc2cscn2)N(C)C(=O)[C@H](CCc2ccc(C(F)(F)F)c(Cl)c2)NC(=O)CN(C)C(=O)[C@H](Cc2ccc(C)cc2)N(C)C(=O)[C@@H]2CCN2C(=O)[C@H](C)N(C)C1=O [Compound 856] ([NMeL]I[NMeA][Aze][NMePhe(4-Me)][Sar][hPhe(3-Cl-4-CF3)][NMeAla(4-thiazolyl)]A[NMeI][NMeD]-NMe2; lactam N-11) — 1.9-fold lower, 14 nM
- CC[C@H](C)[C@@H]1NC(=O)[C@H](C2CCCC2)N(C)C(=O)C[C@@H](C)NC(=O)[C@H](C(C)C)N(C)C(=O)C2(CCCC2)NC(=O)[C@@H]2CCCN2C(=O)[C@H](CCc2ccc(C(F)(F)F)c(Cl)c2)NC(=O)CN(C)C(=O)[C@H](CC2CCCCC2)N(C)C(=O)CN(C)C(=O)CN(C)C1=O [Compound 857] (cyclo([Ac5c][NMeV][d(β3hA)][NMeGly(cPent)]I[Sar][Sar][NMeCha][Sar][hPhe(3-Cl-4-CF3)]P)) — 1.6-fold lower, 17 nM
- CC[C@H](C)[C@@H]1NC(=O)[C@H](C)N(C)C(=O)C[C@@H](C(=O)N2CCCCC2)NC(=O)[C@H](CC(C)C)N(C)C(=O)[C@H](Cc2ccccc2)N(C)C(=O)[C@H](CC(C)C)NC(=O)[C@H](CCc2ccc(C(F)(F)F)c(Cl)c2)NC(=O)CN(C)C(=O)[C@H](Cc2ccc(Cl)cc2)N(C)C(=O)CN(C)C(=O)CN(C)C1=O [Compound 861] ([NMeA]I[Sar][Sar][NMePhe(4-Cl)][Sar][hPhe(3-Cl-4-CF3)]L[NMeF][NMeL]D-Piperidide; lactam N-11) — 6-fold lower, 4.5 nM
- CC[C@H](C)[C@@H]1NC(=O)[C@H](CC(C)C)N(C)C(=O)C[C@@H](C)N(C)C(=O)[C@H]([C@@H](C)CC)N(C)C(=O)C2(CCCC2)NC(=O)[C@@H]2CC(F)(F)CN2C(=O)[C@H](CCc2cc(F)c(C(F)(F)F)c(F)c2)NC(=O)CN(C)C(=O)[C@H](Cc2ccc(C(F)(F)F)cc2)N(C)C(=O)[C@@H]2CCN2C(=O)[C@H](C)N(C)C1=O [Compound 863] (cyclo([Ac5c][NMeI][NMedβ3hAla][NMeL]I[NMeA][Aze][NMePhe(4-CF3)][Sar][hPhe(3,5-F2-4-CF3)][Pro(4,4-F2)])) — 11-fold lower, 2.5 nM
- CCOCCN1CC(=O)N(C)[C@@H](CC2CCCCC2)C(=O)N(C)CC(=O)N[C@@H](CCc2ccc(C(F)(F)F)c(Cl)c2)C(=O)N2CCC[C@H]2C(=O)NC2(CCCC2)C(=O)N(C)[C@@H](C(C)C)C(=O)N[C@H](C)CC(=O)N(C)[C@@H](CC(C)C)C(=O)N[C@@H]([C@@H](C)CC)C(=O)N(C)CC1=O [Compound 864] (cyclo([Ac5c][NMeV][d(β3hA)][NMeL]I[Sar][Gly(N-(CH2)2OEt)][NMeCha][Sar][hPhe(3-Cl-4-CF3)]P)) — 2.7-fold higher, 73 nM
- CC[C@H](C)[C@@H]1NC(=O)[C@H](C)N(C)C(=O)C[C@@H](C)NC(=O)[C@H](C(C)C)N(C)C(=O)[C@H](Cc2ccccc2)N(C)C(=O)[C@@H]2CCCN2C(=O)[C@H](CCc2ccc(C(F)(F)F)cc2)NC(=O)CN(C)C(=O)[C@H](Cc2ccc(Cl)cc2)N(C)C(=O)CN(C)C(=O)CN(C)C1=O [Compound 865] (cyclo(I[Sar][Sar][NMePhe(4-Cl)][Sar][hPhe(4-CF3)]P[NMeF][NMeV][d(β3hA)][NMeA])) — 2-fold higher, 55 nM
- CC[C@H](C)[C@@H]1NC(=O)[C@H](CC(C)C)N(C)C(=O)C[C@@H](C(=O)N2CCCCC2)N(C)C(=O)[C@H](C(C)C)N(C)C(=O)C2(CCCC2)NC(=O)[C@@H]2CCCN2C(=O)[C@H](CCc2ccc(C(F)(F)F)c(Cl)c2)NC(=O)CN(C)C(=O)[C@H](Cc2ccc(C#N)cc2)N(C)C(=O)CN(C)C(=O)CN(C)C1=O [Compound 867] ([NMeL]I[Sar][Sar][NMePhe(4-CN)][Sar][hPhe(3-Cl-4-CF3)]P[Ac5c][NMeV][NMeD]-Piperidide; lactam N-11) — 7.9-fold lower, 3.4 nM
- CC[C@H](C)[C@@H]1NC(=O)[C@H](CC(C)C)N(C)C(=O)C[C@@H](C)N(C)C(=O)[C@H]([C@@H](C)CC)N(C)C(=O)C2(CCC2)NC(=O)[C@@H]2CC(F)(F)CN2C(=O)[C@H](CCc2ccc(C(F)(F)F)c(Cl)c2)NC(=O)CN(C)C(=O)[C@H](Cc2ccc(C)cc2)N(C)C(=O)CN(C)C(=O)CN(C)C1=O [Compound 869] (cyclo([Ac4c][NMeI][NMedβ3hAla][NMeL]I[Sar][Sar][NMePhe(4-Me)][Sar][hPhe(3-Cl-4-CF3)][Pro(4,4-F2)])) — 2.8-fold lower, 9.8 nM
